Laboratory results reported in ChEMBL document CHEMBL6153019, “A series of indole-derived γ-hydroxy propiolate esters as potent anti-inflammatory agents: Design, synthesis, in-vitro and in-vivo biological studies” (Eur J Med Chem, 2024).
Calls of active or inactive are those of the source. No cut-off for these calls is given here.

What was measured:
[1] = Cytotoxicity against mouse RAW264.7 cells assessed as cell survival at 10 uM preincubated for 4 hrs followed by compound addition and measured after 20 hrs by MTT assay relative to control; assay type: toxicity, cell-based; settings: read-out: Survival
[2] = tested on: RAW264.7; assay: Anti-inflammatory activity against LPS-Induced mouse RAW264.7 cells assessed as inhibition of Nitric oxide release at 10 uM measured after 18 hrs by Griess reagent assay relative to control; assay type: functional; set-up: Activity: scale not given: the % may be the effect or the level left; settings: for inhibition at 10 µM: Mus musculus, RAW264.7
[3] = tested on: Mus musculus; assay: Anti-inflammatory activity against female Kunming mouse model xylene-induced auricle edema assessed as inhibition of ear swelling at 100 mg/kg, IP measured after 1 hr relative to control; assay type: functional; set-up: scale not given: the % may be the effect or the level left
[4] = tested on: RAW264.7; assay: Anti-inflammatory activity against LPS-Induced mouse RAW264.7 cells assessed as inhibition of PGE2 production at 1uM measured after 24 hrs by ELISA method; assay type: functional
[5] = tested on: RAW264.7; assay: Anti-inflammatory activity against LPS-Induced mouse RAW264.7 cells assessed as inhibition of COX-2 expression level at 5 uM incubated for 24 hrs by ELISA method relative to control; assay type: functional
[6] = Cytotoxicity against mouse RAW264.7 cells assessed as cell survival at 5 uM preincubated for 4 hrs followed by compound addition and measured after 20 hrs by MTT assay relative to control; assay type: toxicity, cell-based; settings: read-out: Survival
[7] = tested on: Mus musculus; assay: Anti-inflammatory activity against female Kunming mouse model xylene-induced auricle edema assessed as inhibition rate of ear swelling measured after 1 hr; assay type: functional, organism-based
[8] = tested on: RAW264.7; assay: Anti-inflammatory activity against LPS-Induced mouse RAW264.7 cells assessed as inhibition of Nitric oxide release at 1 uM measured after 18 hrs by Griess reagent assay; assay type: functional, cell-based
[9] = tested on: RAW264.7; assay: Anti-inflammatory activity against LPS-Induced mouse RAW264.7 cells assessed as inhibition of LT release at 1 uM incubated for 24 hrs by LT determination assay relative to control; assay type: functional
[10] = tested on: RAW264.7; assay: Anti-inflammatory activity against LPS-Induced mouse RAW264.7 cells assessed as inhibition of LT release at 5 uM incubated for 24 hrs by LT determination assay relative to control; assay type: functional
[11] = tested on: RAW264.7; assay: Anti-inflammatory activity against LPS-Induced mouse RAW264.7 cells assessed as increase inhibition of PGE2 production measured after 24 hrs by ELISA method; assay type: functional, cell-based
[12] = tested on: RAW264.7; assay: Anti-inflammatory activity against LPS-Induced mouse RAW264.7 cells assessed as inhibition of TXB-2 release at 1 uM incubated for 24 hrs by LT determination assay relative to control; assay type: functional
[13] = tested on: RAW264.7; assay: Anti-inflammatory activity against LPS-Induced mouse RAW264.7 cells assessed as inhibition of COX-2 at 5 uM incubated for 24 hrs by ELISA method relative to control; assay type: functional
[14] = tested on: Mus musculus; assay: Anti-inflammatory activity against female Kunming mouse model xylene-induced auricle edema assessed as inhibition of ear swelling at 50 mg/kg, ip measured after 1 hr relative to control; assay type: functional; set-up: scale not given: the % may be the effect or the level left
[15] = tested on: RAW264.7; assay: Anti-inflammatory activity against LPS-Induced mouse RAW264.7 cells assessed as inhibition of PGF1 production at 1 uM incubated for 24 hrs by ELISA method relative to control; assay type: functional
[16] = tested on: RAW264.7; assay: Anti-inflammatory activity against LPS-Induced mouse RAW264.7 cells assessed as inhibition in COX-2 expression at 1uM incubated for 24 hrs by ELISA method; assay type: functional, cell-based
[17] = tested on: RAW264.7; assay: Anti-inflammatory activity against LPS-Induced mouse RAW264.7 cells assessed as inhibition of PGE2 production at 10 uM measured after 24 hrs by ELISA method; assay type: functional
[18] = tested on: RAW264.7; assay: Anti-inflammatory activity against LPS-Induced mouse RAW264.7 cells assessed as inhibition of Nitric oxide release at 1 uM measured after 18 hrs by Griess reagent assay relative to control; assay type: functional
[19] = tested on: RAW264.7; assay: Anti-inflammatory activity against LPS-Induced mouse RAW264.7 cells assessed as inhibition of TXB-2 release at 5 uM incubated for 24 hrs by LT determination assay relative to control; assay type: functional; set-up: scale not given: the % may be the effect or the level left
[20] = tested on: RAW264.7; assay: Anti-inflammatory activity against LPS-Induced mouse RAW264.7 cells assessed as inhibition of PGF1 production at 5 uM incubated for 24 hrs by ELISA method relative to control; assay type: functional
[21] = tested on: RAW264.7; assay: Anti-inflammatory activity against LPS-Induced mouse RAW264.7 cells assessed as inhibition of PGE2 production at 5 uM measured after 24 hrs by ELISA method; assay type: functional, cell-based
[22] = tested on: RAW264.7; assay: Antiproliferative activity against mouse RAW264.7 cells assessed as tumor growth inhibition at 10 uM preincubated for 4 hrs followed by compound addition and measured after 20 hrs by MTT assay; assay type: functional, cell-based
[23] = tested on: RAW264.7; assay: Anti-inflammatory activity against LPS-induced mouse RAW264.7 cells assessed as downregulation of COX-1 protein expression level incubated for 24 hrs by ELISA method; assay type: functional, cell-based
[24] = tested on: RAW264.7; assay: Anti-inflammatory activity against LPS-induced mouse RAW264.7 cells assessed as inhibition of 5-LOX protein expression at 5 uM incubated for 24 hrs by ELISA method relative to control; assay type: functional
[25] = tested on: RAW264.7; assay: Anti-inflammatory activity against LPS-Induced mouse RAW264.7 cells assessed as inhibition of COX-1 expression level at 5 uM incubated for 24 hrs by ELISA method relative to control; assay type: functional
[26] = tested on: RAW264.7; assay: Anti-inflammatory activity against LPS-induced mouse RAW264.7 cells assessed as inhibition of COX-1 expression at 5 uM incubated for 24 hrs by ELISA method relative to control; assay type: functional

## COC(=O)C#CC1(O)C(=O)N(C)c2cccc(Cl)c21 (configuration not stated)
[1]
  viability at 20 h, 10 µM: 86.7%

## COC(=O)C#CC1(O)C(=O)N(Cc2cccc3ccccc23)c2ccc(Cl)cc21 (configuration not stated)
[1]
  viability at 20 h, 10 µM: 99.9%

## COC(=O)C#CC1(O)C(=O)Nc2ccc(C)cc21 (configuration not stated)
[2]
  Activity: 81.68%

## Cc1ccc(-c2cc(C(F)(F)F)nn2-c2ccc(S(N)(=O)=O)cc2)cc1 [CELECOXIB]
[3]
  Activity: 93.23%

## COC(=O)C#CC1(O)C(=O)N(Cc2ccccc2)c2cc(Cl)ccc21 (configuration not stated)
[4]
  inhibition at 1 µM: 58%
[5]
  inhibition at 5 µM: 38.8%
[6]
  viability at 20 h, 5 µM: 57.9%
[7]
  Activity: Dose-dependent-effect
[8]
  inhibition: Active
[9]
  inhibition at 1 µM: 25.9%
[10]
  inhibition at 5 µM: 11%
[11]
  inhibition: Dose-dependent-effect
[12]
  inhibition at 1 µM: 25.4%
[13]
  inhibition at 5 µM: 38.8%
[14]
  Activity: 78.14%
[15]
  inhibition at 1 µM: 16%
[16]
  inhibition: Active
[17]
  inhibition at 10 µM: 94.5%
[18]
  inhibition at 1 µM: 50%
[3]
  Activity: 85.43%
[19]
  Activity: 21.14%
[20]
  inhibition at 5 µM: 16.6%
[2]
  inhibition at 10 µM: 101%
[21]
  inhibition: Active
[22]
  Activity: Active

## COC(=O)C#CC1(O)C(=O)N(Cc2cccc3ccccc23)c2cc(Cl)ccc21 (configuration not stated)
[23]
  inhibition: Active
[5]
  inhibition at 5 µM: 42.6%
[24]
  inhibition at 5 µM: 71.2%
[25]
  inhibition at 5 µM: 35.3%
[26]
  inhibition at 5 µM: 35.3%
[13]
  inhibition at 5 µM: 42.6%
[2]
  inhibition at 10 µM: 102%
